According to ChEMBL document CHEMBL1201862, “PubChem BioAssay data set” (2004):
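The compound was tested at five concentrations on cells cultured in 96-well plates, with a 48-hour exposure period. Abbreviation: GI50, concentration required for 50% inhibition of growth.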 Calls of active or inactive are those of the source. Cut-off read from the data, not from the text of the source: active = GI50 up to about 1.1 µM and inactive = higher.

Assays:
Test in all cases: DTP human tumour cell line panel, 48 h
[1] = tested on: 786-0
[2] = tested on: A498
[3] = tested on: A549
[4] = tested on: ACHN
[5] = tested on: CAKI-1
[6] = tested on: CCRF-CEM
[7] = tested on: COLO 205
[8] = tested on: DMS-273
[9] = tested on: EKVX
[10] = tested on: HCC 2998
[11] = tested on: HCT-116
[12] = tested on: HL-60
[13] = tested on: HOP-18
[14] = tested on: HOP-62
[15] = tested on: HT-29
[16] = tested on: IGROV-1
[17] = tested on: K562
[18] = tested on: KM-20L2
[19] = tested on: KM12
[20] = tested on: LOX IMVI
[21] = tested on: LXFL 529
[22] = tested on: M14
[23] = tested on: M19-MEL
[24] = tested on: MOLT-4
[25] = tested on: Malme-3M
[26] = tested on: NCI-H226
[27] = tested on: NCI-H23
[28] = tested on: NCI-H460
[29] = tested on: NCI-H522
[30] = tested on: OVCAR-3
[31] = tested on: OVCAR-4
[32] = tested on: OVCAR-5
[33] = tested on: OVCAR-8
[34] = tested on: RXF 393
[35] = tested on: SF-268
[36] = tested on: SF-295
[37] = tested on: SF-539
[38] = tested on: SK-MEL-28
[39] = tested on: SK-MEL-2
[40] = tested on: SK-OV-3
[41] = tested on: SN12C
[42] = tested on: SNB-19
[43] = tested on: SNB-78
[44] = tested on: SR
[45] = tested on: SW-620
[46] = tested on: TK-10
[47] = tested on: U-251
[48] = tested on: UACC-257
[49] = tested on: UACC-62
[50] = tested on: UO-31
[51] = tested on: XF498
[52] = tested on: DLD-1
[53] = tested on: DMS-114
[54] = tested on: HOP-92
[55] = tested on: RPMI-8226
[56] = tested on: SK-MEL-5
[57] = tested on: SNB-75

Measured: GI50

Fc1ccccc1C1CC(c2ccc3ccccc3c2)=Nc2ccccc2S1 (configuration not stated)
inactive: [1] > 100 µM | [2] > 100 µM | [3] > 100 µM | [4] > 100 µM | [5] > 100 µM | [6] > 100 µM | [7] > 100 µM | [8] > 100 µM | [9] > 100 µM | [10] 4.27 µM | [11] > 100 µM | [12] > 100 µM | [13] > 100 µM | [14] > 100 µM | [15] > 100 µM | [16] > 100 µM | [17] > 10 µM | [18] > 100 µM | [19] > 100 µM | [20] > 100 µM | [21] > 100 µM | [22] > 100 µM | [23] > 100 µM | [24] > 100 µM | [25] > 100 µM | [26] > 100 µM | [27] > 100 µM | [28] > 100 µM | [29] > 100 µM | [30] > 100 µM | [31] > 100 µM | [32] > 100 µM | [33] > 100 µM | [34] > 100 µM | [35] > 100 µM | [36] > 100 µM | [37] > 100 µM | [38] > 100 µM | [39] > 100 µM | [40] > 100 µM | [41] > 100 µM | [42] > 100 µM | [43] > 100 µM | [44] > 100 µM | [45] > 100 µM | [46] > 100 µM | [47] > 100 µM | [48] > 100 µM | [49] > 100 µM | [50] > 100 µM | [51] > 100 µM

CCCCCCCCCCCCCCCC(=O)OCC1OC(n2cc(F)c(=O)[nH]c2=O)C(N)C(O)C1O (configuration not stated)
inactive: [1] 19.1 µM | [2] 25.9 µM | [3] 19 µM | [4] 18.8 µM | [5] 21 µM | [6] 16 µM | [7] 18.5 µM | [52] 20.6 µM | [53] 18.8 µM | [9] 18.8 µM | [10] 14.5 µM | [11] 20 µM | [12] 19.5 µM | [13] 16.3 µM | [14] 19.7 µM | [54] 20.1 µM | [15] 20.6 µM | [16] > 10 µM | [17] 16.5 µM | [18] 17.2 µM | [19] 18.6 µM | [20] 17.4 µM | [21] 18.9 µM | [22] 17.8 µM | [23] 18.7 µM | [24] 22.8 µM | [25] 19.4 µM | [26] 17.5 µM | [27] 19.7 µM | [29] 17.8 µM | [30] 2.19 µM | [31] 15.8 µM | [32] 27 µM | [33] 20.5 µM | [55] 23.3 µM | [35] 19.5 µM | [36] 17.1 µM | [37] 19.4 µM | [38] 16.9 µM | [56] 18.1 µM | [40] 22.4 µM | [41] 18.2 µM | [42] 22.2 µM | [57] 19.2 µM | [45] 16.7 µM | [46] 21.9 µM | [47] 18.5 µM | [48] 20.2 µM | [49] 16.2 µM | [50] 15.6 µM | [51] 18.9 µM
